Results published in US20060228752A1, “Genetic polymorphisms in the preprotachykinin gene” (priority 2002, published 2006).

What was measured:
Type in all cases: in vivo, human
[1] = tested on: apomorphine-induced vomiting and retching; test: Emesis test (apomorphine challenge), Single Ascending Dose study (SAD)
Method: (§1) The described emesis test was performed in two studies. A Single Ascending Dose study (SAD) and a Multiple Ascending Dose study (MAD). In the SAD the emesis test was performed 6 and/or 24 hrs after intake of 2-(3,5-bis-trifluoromethyl-phenyl)-N-methyl-N-(6-morpholin-4-yl-4-o-tolyl-pyridin-3-yl)-isobutyramide. In the MAD the emesis test was performed after 14 once daily doses, 6 or 24 hrs after the last dose.
In the SAD on study day 1 doses of 5, 10, 20, 40, 80, 160, 230 and 400 mg 2-(3,5-bis-trifluoromethyl-phenyl)-N-methyl-N-(6-morpholin-4-yl-4-o-tolyl-pyridin-3-yl)-isobutyramide were administered to the subjects orally as a drinking emulsion. At either 6 or 24 hours after the administration of the drug the subjects received a subcutaneous injection of 50 μg/kg of apomorphine in the lower part of the abdomen. The time of apomorphine administration was recorded. The subjects were brought into an upright sitting position immediately after the injection. They remained in this position until vomiting occurred or for at least 1 hour after the apomorphine injection. Vomiting is defined as regurgitation of approximately 25 ml or more of gastric contents. A retch is defined as a regurgitation producing less or no gastric content.
Nausea and/or vomiting was expected to occur on average within 10 minutes after the injection. […] The number of vomits and retches were recorded. […]

[2] = tested on: apomorphine-induced vomiting and retching; test: Emesis test (apomorphine challenge), Multiple Ascending Dose study (MAD); conditions: 14 once daily doses, test on day 14, 6 or 24 hrs after last dose
Method: as §1, with “dose. Subjects were dosed for 14 days with 2-(3,5-bis-trifluoromethyl-phenyl)-N-methyl-N-(6-morpholin-4-yl-4-o-tolyl-pyridin-3-yl)-isobutyramide. On day 14 the test was carried out as described in the SAD.” for “dose.”

[3] = tested on: apomorphine-induced vomiting and retching; test: Emesis test response by NKNA position 41172 genotype (SAD and MAD participants); conditions: plasma concentration >20 ng/ml; responder = ≦3 retches and vomits
Method: FIG. 4: 2×2 Contingency table for 29 position 41172 genotype test results with concentration before emesis test >20 ng/ml 2-(3,5-bis-trifluoromethyl-phenyl)-N-methyl-N-(6-morpholin-4-yl-4-o-tolyl-pyridin-3-yl)-isobutyramide. Effect=yes: number of vomits+retches≦3. Fisher's Exact Test (two-sided): p=0.033. The genotypes of the subjects were classified according to the following categories: 0-2 are allele 2 (nucleotide G) homozygotes (two copies of allele 2, no copies of allele 1); not 0-2 include allelel (nucleotide A) homozygotes 2-0 (two copies of allele 1, no copies of allele 2) and heterozygotes 1-1 (one copy of allele 1 and one copy of allele 2).
Three genetic markers were selected based on the results from polymorphism discovery in the NKNA gene. Samples were genotyped for these single nucleotide polymorphisms by a kinetic PCR method described by Germer et al., Genome Res. (2000), 10, 258-266 with the modification of using single sample for each reaction instead of pooling samples. This method allows discrimination of single nucleotide polymorphisms without the use of fluorescent probes.
All participants of the SAD and MAD were tested for the single nucleotide polymorphism at position 41172 of the NKNA gene as defined by position in FIG. 2.

With `Cc1ccccc1-c1cc(N2CCOCC2)ncc1N(C)C(=O)C(C)(C)c1cc(C(F)(F)F)cc(C(F)(F)F)c1` [2-(3,5-bis-trifluoromethyl-phenyl)-N-methyl-N-(6-morpholin-4-yl-4-o-tolyl-pyridin-3-yl)-isobutyramide] the “average number of retches and vomits at the plateau reached with the blockade” value ([1]; apomorphine 50 μg/kg s.c. 6 or 24 hrs after oral drug) was 3, the “plasma concentration at which efficacious levels are reached (minimal concentration to achieve efficacy)” value ([1]; oral drinking emulsion 5-400 mg, apomorphine 50 μg/kg s.c. 6 or 24 hrs after drug, efficacy = plateau of 3 retches and vomits) was 20 ng/mL and the “emesis test result in MAD” value [2] was “consistent with the SAD”. For the same molecule, the “response to treatment of subjects with G at position 41172 of the NKNA gene versus subjects without it or heterozygous” value [3] was “responding with a higher efficacy”.
